Converted amounts (≈) assume the structure as drawn. No end group written: not given here.
Key:
[1] = tested on: human red blood cells (RBC); assay: in vitro; format: cell-based; conditions: for Peptide toxicity RBC LD/50: human red blood cells; for LD50: hemolytic assay, concentration at 50% hemolysis, 1 hour at 37° C.
[2] = tested on: human leukocyte (WBC) cells; assay: Stimulation and proliferation of leukocytes, Alamar Blue; format: cell-based; conditions: 48 hours
Description: In vitro viability of human leukocyte cells in the presence of different peptides at different concentrations was determined by an Alamar Blue protocol. Alamar Blue (Promega, Madison, Wis.) is an indicator dye, formulated to measure quantitatively the proliferation and cytotoxicity of the cells. The dye consists of an oxidation-reduction (redox) indicator that yields a calorimetric change and a fluorescent signal in response to cellular metabolic activity.
Assay protocol: Blood from a human was drawn and centrifuged at 1500 rpm for 15 minutes at room temperature. The buffy coat cells at the plasma-red blood cell interface were aspirated. Buffy coat cells (mainly lymphocyte cells) were then transferred into 15 ml centrifuge tubes containing 5 ml of RPMI-1640 medium+10% Fetal Bovine Serum (Gibco, Grand Island, N.Y.). Additional medium was added to the tubes to bring the volume up to 10 ml. The buffy coat suspension was then carefully layered on 5 ml of Histopaque (Sigma Chemical Co., St. Louis, Mo.) and centrifuged at 1500 rpm for 30 minutes at room temperature. The interface which is mostly PBMCs (peripheral mononuclear cells) was aspirated and transferred to a 15 ml conical centrifuge tube and, resuspended in 2 ml cold RPMI-1640 and brought up to 15 ml with cold RPMI-1640 medium. Cells were centrifuged at 1500 rpm for 10 minutes. The supernatant was then aspirated and discarded. The cell pellet was re-suspended in 1 ml of cold RPMI 1640 and brought up to 15 ml with RPMI medium. This step was repeated twice, except that in the last step, the cells were resuspended with 1 ml of cold RPMI-1640 medium and cell counts were performed with a hemocytometer according to the Sigma cell culture catalogue.
Pokewood mitogen was used as a control along with positive and negative controls. Negative control cells were killed with 70% methanol. Positive (+) control cells were incubated in RPMI medium (untreated). […] of AlamarBlue was added to the cells, and readings were taken after 24 hours, 48 hours, 72 hours, and 96 hours using a fluorimeter (excitation 544/transmission 590 nm).
Calculations were performed using the following formula. The peptide treated sample and positive control were adjusted for negative control. [formula]
Using the protocol described immediately above, about 100-150 peptides were screened for their stimulatory and/or inhibitory actions upon the growth of human leukocyte (“WBC”) cells as compared to the growth of untreated positive control cells.
The Alamar Blue stain used in the protocol permeates both cell and nuclear membranes, and is metabolized in the mitochondria to cause the change in color. The resulting fluorometric response is therefore a result of total mitochondrial activity caused by cell stimulation and/or mitosis (cell proliferation).

[3] = in vitro; conditions: human, WI38 normal lung fibroblast cells
[4] = tested on: HeLaS3; assay: Anti-cancer assay, MTT, LD50; format: cell-based; conditions: 24 hours with peptide, cervical carcinoma
Description: (§1) Numbers are LD50 values (μg/mL).

[5] = tested on: PC3; assay: Anti-cancer assay, MTT, LD50; format: cell-based; conditions: 24 hours with peptide, prostate adenocarcinoma
Description: as §1

[6] = tested on: H1299; assay: Anti-cancer assay, MTT, LD50; format: cell-based; conditions: 24 hours with peptide, lung large cell carcinoma
Description: as §1

[7] = tested on: SW480; assay: Anti-cancer assay, MTT, LD50; format: cell-based; conditions: SW480 colon adenocarcinoma line, 24 hours with peptide
Description: as §1

[8] = tested on: MCF7; assay: Anti-cancer assay, MTT, LD50; format: cell-based; conditions: MCF7 breast adenocarcinoma line, MTT, 24 hours with peptide
Description: as §1

[9] = tested on: BMKC; assay: Anti-cancer assay, MTT, LD50; format: cell-based; conditions: BMKC cloned melanoma line, 24 hours with peptide
Description: as §1

[10] = tested on: Pseudomonas aeruginosa ATCC 9027; assay: Antimicrobial assay I, MIC by OD measurement; format: cell-based; conditions: 37° C. for 24 hours, absorbance 620 nm
[11] = tested on: Staphylococcus aureus ATCC 6538; assay: Antimicrobial assay I, MIC by OD measurement; format: cell-based; conditions: 37° C. for 24 hours, absorbance 620 nm
[12] = tested on: yeast (Saccharomyces cerevisiae); assay: Antimicrobial assay I, yeast assay in RPMI 1640; format: cell-based; conditions: RPMI 1640 media
[13] = tested on: WI38; conditions: MTT, 24 hours with peptide; normal fibroblast line
[14] = Peptide toxicity WI-38 LD/50, human fibroblast cells
[15] = LD50 WI38, WI38 normal lung fibroblast line, MTT, 24 hours with peptide

FAKLLAKALKKAL-NH2 [compound 66]
Peptide toxicity RBC LD/50 [1]: 500 | Peptide treated cell activity Percent stimulation relative to control ([2]; 0.1 ug/ml): 100% | Peptide treated cell activity Percent stimulation relative to control ([2]; 1 ug/ml): 102% | Peptide treated cell activity Percent stimulation relative to control ([2]; 10 ug/ml): 97% | Peptide treated cell activity Percent stimulation relative to control ([2]; 100 ug/ml): 37% | Peptide treated cell activity Percent stimulation relative to control ([2]; 500 ug/ml): 17% | CC50 at 24 h [3, 14]: 210 µg/mL

LPKWKVFKKIEKVGRNIRNGIVKAGPAIAVLGEAKALG-NH2 [compound 150]
Peptide toxicity RBC LD/50 [1]: >1000 | Peptide treated cell activity Percent stimulation relative to control ([2]; 0.1 ug/ml): 97% | Peptide treated cell activity Percent stimulation relative to control ([2]; 1 ug/ml): 101% | Peptide treated cell activity Percent stimulation relative to control ([2]; 10 ug/ml): 94% | Peptide treated cell activity Percent stimulation relative to control ([2]; 100 ug/ml): 109% | Peptide treated cell activity Percent stimulation relative to control ([2]; 500 ug/ml): 112% | CC50 at 24 h [3, 14]: 320 µg/mL

FAKLLAKLAKKFAL-NH2 [P120, FAKLLAKLAKKFAL-NH2]
HeLaS3 LD50 [4]: 810 µg/mL | PC3 LD50 [5]: > (> indicates greater than 1000) | H1299 LD50 [6]: 620 µg/mL | LD50 SW480 [7]: 630 µg/mL | LD50 MCF7 [8]: 730 µg/mL | LD50 BMKC [9]: 660 µg/mL | LD50 [1]: > (> indicates greater than 1000) | paerug9027 (MIC) [10]: 200 µg/mL | staph6538 (MIC) [11]: 50 µg/mL | yeast (MIC or MFC) [12]: 200 µg/mL | WI38 LD50 [13]: 600 µg/mL | CC50 at 24 h [3, 15]: 600 µg/mL

FALKALKKLKKALKKAL-NH2 [compound 115]
Peptide toxicity RBC LD/50 [1]: 780 | Peptide treated cell activity Percent stimulation relative to control ([2]; 0.1 ug/ml): 93% | Peptide treated cell activity Percent stimulation relative to control ([2]; 1 ug/ml): 92% | Peptide treated cell activity Percent stimulation relative to control ([2]; 10 ug/ml): 37% | Peptide treated cell activity Percent stimulation relative to control ([2]; 100 ug/ml): 72% | Peptide treated cell activity Percent stimulation relative to control ([2]; 500 ug/ml): 29% | CC50 at 24 h [3, 14]: 130 µg/mL

FAKLLFKALKKAL-NH2 [P112, FAKLLFKALKKAL-NH2]
HeLaS3 LD50 [4]: 660 µg/mL | PC3 LD50 [5]: 640 µg/mL | H1299 LD50 [6]: 470 µg/mL | LD50 SW480 [7]: 800 µg/mL | LD50 MCF7 [8]: 500 µg/mL | LD50 BMKC [9]: 445 µg/mL | LD50 [1]: > (> indicates greater than 1000) | paerug9027 (MIC) [10]: 200 µg/mL | staph6538 (MIC) [11]: 50 µg/mL | yeast (MIC or MFC) [12]: 100 µg/mL | WI38 LD50 [13]: 420 µg/mL | CC50 at 24 h [3, 15]: 420 µg/mL

FAKLLALALKKAL-NH2 [compound 165]
Peptide toxicity RBC LD/50 [1]: 350 | Peptide treated cell activity Percent stimulation relative to control ([2]; 0.1 ug/ml): 107% | Peptide treated cell activity Percent stimulation relative to control ([2]; 1 ug/ml): 109% | Peptide treated cell activity Percent stimulation relative to control ([2]; 10 ug/ml): 106% | Peptide treated cell activity Percent stimulation relative to control ([2]; 100 ug/ml): 27% | Peptide treated cell activity Percent stimulation relative to control ([2]; 500 ug/ml): 22%

CC(C)C[C@H](NC(=O)[C@H](C)NC(=O)[C@H](CC(C)C)NC(=O)[C@H](CCCCN)NC(=O)[C@H](C)NC(=O)[C@H](CC(C)C)NC(=O)[C@H](CCCCN)NC(=O)[C@H](CCCCN)NC(=O)[C@H](C)NC(=O)[C@H](CC(C)C)NC(=O)[C@H](CCCCN)NC(=O)[C@H](C)NC(=O)[C@H](CC(C)C)NC(=O)[C@H](CCCCN)NC(=O)[C@H](CCCCN)NC(=O)[C@H](C)NC(=O)[C@@H](N)Cc1ccccc1)C(N)=O [compound 17]
Peptide toxicity RBC LD/50 [1]: 200 | Peptide treated cell activity Percent stimulation relative to control ([2]; 0.1 ug/ml): 82% | Peptide treated cell activity Percent stimulation relative to control ([2]; 1 ug/ml): 76% | Peptide treated cell activity Percent stimulation relative to control ([2]; 10 ug/ml): 61% | Peptide treated cell activity Percent stimulation relative to control ([2]; 100 ug/ml): 18% | Peptide treated cell activity Percent stimulation relative to control ([2]; 500 ug/ml): 16% | CC50 at 24 h [3, 14]: 8 µg/mL (≈ 4.31 µM)

FAKLFAKLAKKFAL-NH2 [P121, FAKLFAKLAKKFAL-NH2]
HeLaS3 LD50 [4]: 830 µg/mL | PC3 LD50 [5]: > (> indicates greater than 1000) | H1299 LD50 [6]: 460 µg/mL | LD50 SW480 [7]: 800 µg/mL | LD50 MCF7 [8]: 400 µg/mL | LD50 BMKC [9]: 670 µg/mL | LD50 [1]: > (> indicates greater than 1000) | paerug9027 (MIC) [10]: > (> indicates greater than 200 μg/mL) | staph6538 (MIC) [11]: 50 µg/mL | yeast (MIC or MFC) [12]: 100 µg/mL | WI38 LD50 [13]: 625 µg/mL | CC50 at 24 h [3, 15]: 625 µg/mL

From patent publication US20050209157A1, “Short bioactive peptides and methods for their use” (priority 2001, published 2005)
